Experimental data published in patent US4684664A, “Derivatives of β-(4-isocyano-1,2,3,4-diepoxycyclopentyl) acrylic acid” (Kureha Kagaku Kogyo Kabushiki Kaisha, priority 1984, dated 1987).
Converted amounts (≈) assume the structure as drawn.

Assays:
[1] = tested on: Serratia marcescens IAM 1184; assay: Antibacterial activity, agar-dilution MIC, organism No. 13; format: cell-based; details: Serratia marcescens, IAM1184; Organism No. 13, bouillon-agar; read-out: Minimum Inhibitory Concentration
How it was run: (§1)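 Values come from agar-dilution plates prepared with bouillon agar; they represent the least specimen concentration (μg/ml of medium) giving inhibition.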

[2] = tested on: Candida albicans IAM 4905; assay: Antifungal activity, agar-dilution MIC, organism No. 29; format: cell-based; details: Candida albicans, IAM4905; Organism No. 29, bouillon-agar; read-out: Minimum Inhibitory Concentration
How it was run: as §1

[3] = tested on: Pseudomonas aeruginosa NCTC 10490; assay: Antibacterial activity, agar-dilution MIC, organism No. 16; format: cell-based; details: Pseudomonas aeruginosa, NCTC10490; Organism No. 16, bouillon-agar; read-out: Minimum Inhibitory Concentration
How it was run: as §1

[4] = tested on: Staphylococcus aureus FDA 209PJc-1; assay: Antibacterial activity, agar-dilution MIC, organism No. 1; format: cell-based; details: Staphylococcus aureus, FDA209PJC1; Organism No. 1, bouillon-agar; read-out: Minimum Inhibitory Concentration
How it was run: as §1

[5] = tested on: Salmonella typhimurium IID 971; assay: Antibacterial activity, agar-dilution MIC, organism No. 8; format: cell-based; details: Salmonella enterica; Organism No. 8, bouillon-agar; read-out: Minimum Inhibitory Concentration
How it was run: as §1

[6] = tested on: Pseudomonas aeruginosa IFO 3445; assay: Antibacterial activity, agar-dilution MIC, organism No. 15; format: cell-based; details: Pseudomonas aeruginosa, IFO3445; Organism No. 15, bouillon-agar; read-out: Minimum Inhibitory Concentration
How it was run: as §1

Proteus vulgaris HX-19 = assay: Antibacterial activity, agar-dilution MIC, organism No. 21; format: cell-based; details: Proteus vulgaris, HX19; Organism No. 21, bouillon-agar; read-out: Minimum Inhibitory Concentration
How it was run: as §1

[7] = tested on: Pseudomonas aeruginosa PAO 1; assay: Antibacterial activity, agar-dilution MIC, organism No. 17; format: cell-based; details: Pseudomonas aeruginosa, PAO1; Organism No. 17, bouillon-agar; read-out: Minimum Inhibitory Concentration
How it was run: as §1

[8] = tested on: Enterobacter aerogenes ATCC 13048; assay: Antibacterial activity, agar-dilution MIC, organism No. 23; format: cell-based; details: Klebsiella aerogenes, ATCC13048; Organism No. 23, bouillon-agar; read-out: Minimum Inhibitory Concentration
How it was run: as §1

[9] = tested on: Mycoplasma pneumoniae IID817; assay: Antimycoplasmal activity, MIC by phenol red colour change, organism No. 28; format: cell-based; details: Mycoplasma, IID817; Organism No. 28, PPLO broth + 1% glucose, 37° C.; read-out: Minimum Inhibitory Concentration (MIC)
Protocol: Mycoplasma pneumoniae IID817 was used as the test microorganism in a culture medium prepared by adding 1% of glucose to "PPLO broth (manufactured by Difco Co.) liquid culture medium" at 37° C. with phenol red as an indicator, thereby culturing the test microorganism.

[10] = tested on: Proteus morganii IFO 3848; assay: Antibacterial activity, agar-dilution MIC, organism No. 18; format: cell-based; details: Morganella morganii, IFO3848; Organism No. 18, bouillon-agar; read-out: Minimum Inhibitory Concentration
How it was run: as §1

[11] = tested on: Staphylococcus aureus MS 353; assay: Antibacterial activity, agar-dilution MIC, organism No. 3; format: cell-based; details: Staphylococcus aureus, MS353; Organism No. 3, bouillon-agar; read-out: Minimum Inhibitory Concentration
How it was run: as §1

Salmonella typhi 901 = assay: Antibacterial activity, agar-dilution MIC, organism No. 9; format: cell-based; details: Salmonella enterica, TYPHI, read-out: Minimum Inhibitory Concentration
How it was run: as §1

[12] = tested on: Streptococcus pyogenes Cook; assay: Antibacterial activity, agar-dilution MIC, organism No. 4; format: cell-based; details: Streptococcus pyogenes; Organism No. 4, bouillon-agar; read-out: Minimum Inhibitory Concentration
How it was run: as §1

[13] = tested on: Bacillus subtilis ATCC 6633; assay: Antibacterial activity, agar-dilution MIC, organism No. 14; format: cell-based; details: Bacillus subtilis, ATCC6633; Organism No. 14, bouillon-agar; read-out: Minimum Inhibitory Concentration
How it was run: as §1

[14] = tested on: Staphylococcus aureus Terajima; assay: Antibacterial activity, agar-dilution MIC, organism No. 2; format: cell-based; details: Staphylococcus aureus; Organism No. 2, bouillon-agar; read-out: Minimum Inhibitory Concentration
How it was run: as §1

[15] = tested on: Streptococcus faecium IFO 3826; assay: Antibacterial activity, agar-dilution MIC, organism No. 27; format: cell-based; details: Enterococcus faecium, IFO3826; Organism No. 27, bouillon-agar; read-out: Minimum Inhibitory Concentration
How it was run: as §1

[16] = tested on: Salmonella shottmuelleri 8006; assay: Antibacterial activity, agar-dilution MIC, organism No. 11; format: cell-based; details: Salmonella, 8006; Organism No. 11, bouillon-agar; read-out: Minimum Inhibitory Concentration
How it was run: as §1

[17] = tested on: Streptococcus pyogenes IFO 3340; assay: Antibacterial activity, agar-dilution MIC, organism No. 26; format: cell-based; details: Streptococcus pyogenes, IFO3340; Organism No. 26, bouillon-agar; read-out: Minimum Inhibitory Concentration
How it was run: as §1

[18] = tested on: Proteus rettgeri IFO 3850; assay: Antibacterial activity, agar-dilution MIC, organism No. 22; format: cell-based; details: Providencia rettgeri, IFO3850; Organism No. 22, bouillon-agar; read-out: Minimum Inhibitory Concentration
How it was run: as §1

[19] = tested on: Escherichia coli K12 C600 IAM 1264; assay: Antibacterial activity, agar-dilution MIC, organism No. 6; format: cell-based; details: Escherichia coli, IAM1264; Organism No. 6, bouillon-agar; read-out: Minimum Inhibitory Concentration
How it was run: as §1

[20] = Stability in a non-solvent state; format: physicochemical
[21] = tested on: Aspergillus niger IFO 6342; assay: Antifungal activity, agar-dilution MIC, organism No. 30; format: cell-based; details: Aspergillus niger, IFO6342; Organism No. 30, bouillon-agar; read-out: Minimum Inhibitory Concentration
How it was run: as §1

Proteus vulgaris OX-19 = assay: Antibacterial activity, agar-dilution MIC, organism No. 20; format: cell-based; details: Proteus vulgaris, OX19; Organism No. 20, bouillon-agar; read-out: Minimum Inhibitory Concentration
How it was run: as §1

[22] = tested on: Micrococcus luteus ATCC 9341; assay: Antibacterial activity, agar-dilution MIC, organism No. 25; format: cell-based; details: Micrococcus luteus, ATCC9341; Organism No. 25, bouillon-agar; read-out: Minimum Inhibitory Concentration
How it was run: as §1

[23] = tested on: Escherichia coli NIHJ-JC-2; assay: Antibacterial activity, agar-dilution MIC, organism No. 5; format: cell-based; details: Escherichia coli, NIHJJC2; Organism No. 5, bouillon-agar; read-out: Minimum Inhibitory Concentration
How it was run: as §1

[24] = tested on: Salmonella enteritidis G 14; assay: Antibacterial activity, agar-dilution MIC, organism No. 12; format: cell-based; details: Salmonella enterica, ENTERITIDIS; Organism No. 12, bouillon-agar; read-out: Minimum Inhibitory Concentration
How it was run: as §1

[25] = tested on: Proteus mirabilis IFO 3849; assay: Antibacterial activity, agar-dilution MIC, organism No. 19; format: cell-based; details: Proteus mirabilis, IFO3849; Organism No. 19, bouillon-agar; read-out: Minimum Inhibitory Concentration
How it was run: as §1

[26] = tested on: Klebsiella pneumoniae PCI-602; assay: Antibacterial activity, agar-dilution MIC, organism No. 7; format: cell-based; details: Klebsiella pneumoniae, PCI602; Organism No. 7, bouillon-agar; read-out: Minimum Inhibitory Concentration
How it was run: as §1

[27] = tested on: Salmonella paratyphi-A 1015; assay: Antibacterial activity, agar-dilution MIC, organism No. 10; format: cell-based; details: Salmonella enterica, PARATYPHI, read-out: Minimum Inhibitory Concentration
How it was run: as §1

Enterobacter cloacae 963 = assay: Antibacterial activity, agar-dilution MIC, organism No. 24; format: cell-based; details: Enterobacter cloacae, 963; Organism No. 24, bouillon-agar; read-out: Minimum Inhibitory Concentration
How it was run: as §1

| SMILES | MIC [1] | MIC [2] | MIC [3] | MIC [4] | MIC [5] | MIC [6] | MIC (Proteus vulgaris HX-19) | MIC [7] | MIC [8] | MIC [9] | MIC [10] | MIC [11] | MIC (Salmonella typhi 901) | MIC [12] | MIC [13] | MIC [14] | MIC [15] | MIC [16] | MIC [17] | MIC [18] | also measured |
| --- | --- | --- | --- | --- | --- | --- | --- | --- | --- | --- | --- | --- | --- | --- | --- | --- | --- | --- | --- | --- | --- |
| [C-]#[N+]C12CC3(/C=C/C(=O)OCc4cc([N+](=O)[O-])ccc4O)OC3C1O2 (centres unmarked) [Compound No. 17] | > 200 µg/mL | > 100 µg/mL | > 200 µg/mL | > 200 µg/mL | > 200 µg/mL | > 200 µg/mL | > 200 µg/mL | > 200 µg/mL | > 200 µg/mL | 100 µg/mL | > 200 µg/mL | > 200 µg/mL | 200 µg/mL (≈ 581 µM) | > 200 µg/mL | > 200 µg/mL | > 200 µg/mL | > 200 µg/mL | > 200 µg/mL | > 200 µg/mL | > 200 µg/mL | MIC [19]: > 200 µg/mL; stability (in words) [20]: tendency thereof of decomposition in a non-solvent state; MIC [21]: > 100 µg/mL; MIC (Proteus vulgaris OX-19): > 200 µg/mL; MIC [22]: 200 µg/mL (≈ 581 µM); MIC [23]: > 200 µg/mL; MIC [24]: > 200 µg/mL; MIC [25]: > 200 µg/mL; MIC [26]: > 200 µg/mL; MIC [27]: > 200 µg/mL; MIC (Enterobacter cloacae 963): > 200 µg/mL |
| [C-]#[N+]C12CC3(/C=C/C(=O)OCc4ccccc4)OC3C1O2 (stereo not drawn) [Compound No. 10, benzyl β-substituted acrylate] | 12.5 µg/mL (≈ 44.1 µM) | 0.8 µg/mL (≈ 2.82 µM) | > 100 µg/mL | 0.39 µg/mL (≈ 1.38 µM) | 3.13 µg/mL (≈ 11 µM) | > 100 µg/mL | < 0.1 µg/mL | > 100 µg/mL | > 100 µg/mL | < 0.2 µg/mL | 0.39 µg/mL (≈ 1.38 µM) | 0.39 µg/mL (≈ 1.38 µM) | 0.78 µg/mL (≈ 2.75 µM) | 3.13 µg/mL (≈ 11 µM) | 0.78 µg/mL (≈ 2.75 µM) | 1.56 µg/mL (≈ 5.51 µM) | 1.56 µg/mL (≈ 5.51 µM) | < 0.1 µg/mL | 3.13 µg/mL (≈ 11 µM) | 6.25 µg/mL (≈ 22.1 µM) | MIC [19]: 3.13 µg/mL (≈ 11 µM); stability (in words) [20]: decomposed and coloured when left in a non-solvent state; MIC [21]: 1.56 µg/mL (≈ 5.51 µM); MIC (Proteus vulgaris OX-19): < 0.1 µg/mL; MIC [22]: < 0.1 µg/mL; MIC [23]: 6.25 µg/mL (≈ 22.1 µM); MIC [24]: 3.13 µg/mL (≈ 11 µM); MIC [25]: 3.13 µg/mL (≈ 11 µM); MIC [26]: < 0.1 µg/mL; MIC [27]: 0.78 µg/mL (≈ 2.75 µM); MIC (Enterobacter cloacae 963): 50 µg/mL (≈ 177 µM) |
| [C-]#[N+]C12CC3(/C=C/C(=O)OCC(=O)c4ccc(Cl)cc4)OC3C1O2 (centres unmarked) [compound 5] | > 100 µg/mL | 1.56 µg/mL (≈ 4.51 µM) | > 100 µg/mL | 0.05 µg/mL (≈ 0.145 µM) | 6.25 µg/mL (≈ 18.1 µM) | > 100 µg/mL | 0.39 µg/mL (≈ 1.13 µM) | > 100 µg/mL | 100 µg/mL (≈ 289 µM) | < 0.05 µg/mL | 100 µg/mL (≈ 289 µM) | 0.78 µg/mL (≈ 2.26 µM) | 3.13 µg/mL (≈ 9.05 µM) | 12.5 µg/mL (≈ 36.2 µM) | 12.5 µg/mL (≈ 36.2 µM) | 0.78 µg/mL (≈ 2.26 µM) | 12.5 µg/mL (≈ 36.2 µM) | < 0.05 µg/mL | 1.56 µg/mL (≈ 4.51 µM) | 100 µg/mL (≈ 289 µM) | MIC [19]: < 0.05 µg/mL; MIC [21]: 6.25 µg/mL (≈ 18.1 µM); MIC (Proteus vulgaris OX-19): 0.39 µg/mL (≈ 1.13 µM); MIC [22]: < 0.05 µg/mL; MIC [23]: 6.25 µg/mL (≈ 18.1 µM); MIC [24]: 3.13 µg/mL (≈ 9.05 µM); MIC [25]: 100 µg/mL (≈ 289 µM); MIC [26]: 6.25 µg/mL (≈ 18.1 µM); MIC [27]: < 0.05 µg/mL; MIC (Enterobacter cloacae 963): 0.1 µg/mL (≈ 0.289 µM) |
